How the values were obtained:
GCS in MDCKII cells = target: T1, GCS in MDCKII cells (Canis lupus familiaris, UniProt A0A8I3MXG6); test: GCS inhibition in MDCKII cells (glucosylceramide content after 24 h); type: cell-based, canine
T1 construct: whole cellular lipids of wild type MDCKII cells were extracted; endogenous in cells; host or cells: wild type MDCKII cells
T1 sequence (A0A8I3MXG6 1-394): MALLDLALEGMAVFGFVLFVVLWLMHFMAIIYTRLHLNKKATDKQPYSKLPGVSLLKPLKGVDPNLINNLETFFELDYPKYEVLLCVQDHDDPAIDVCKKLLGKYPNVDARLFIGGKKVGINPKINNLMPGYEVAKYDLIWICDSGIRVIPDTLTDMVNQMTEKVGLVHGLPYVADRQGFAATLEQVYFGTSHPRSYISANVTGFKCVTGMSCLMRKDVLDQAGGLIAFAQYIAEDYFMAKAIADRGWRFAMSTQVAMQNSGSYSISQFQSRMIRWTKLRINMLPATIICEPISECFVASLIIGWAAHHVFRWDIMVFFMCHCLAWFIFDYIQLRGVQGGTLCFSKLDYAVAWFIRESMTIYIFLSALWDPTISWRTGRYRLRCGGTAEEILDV
Description: GCS Inhibition in MDCKII Cells (MDCKII IC50, Table 1)
MDCKII cells were routinely maintained in medium consisting of Opti-MEM/F12 (1:1), 5% FBS, 100 U/mL of penicillin, 100 µg/mL streptomycin and 200 mM L-glutamine. MDCKII cells were newly thawed from frozen ampules every two months.
Stock solutions of water-insoluble glycosphingolipid inhibitors (100 mM) were prepared by dissolving each inhibitor into 100% ethanol as previously described (3). The inhibitor-ethanol solutions then were diluted 50X into 2 mM delipidated bovine serum albumin-phosphate buffered saline solution to make water-soluble glycosphingolipid inhibitor-bovine serum albumin complexes. The inhibitor-bovine serum album complexes were sterile-filtered and stored at -20° C. Prior to use, portions of the inhibitor-bovine serum albumin complexes were further diluted with Opti-F12 to make treatment solutions. Equal amounts of bovine serum albumin and ethanol were added into the control cultures. Cells (5 x 10^5) were seeded into 10-cm culture dishes containing 10 ml of Opti-F12 with 5% FBS. After 24 hours, the medium was replaced with fresh serum-free Opti-F12 medium, and cells were exposed to candidate GCS inhibitors at concentrations of 0, 1, 3, 10, 30, 100 and 300 nM for 24 hours.
Following inhibitor treatment, whole cellular lipids of wild type MDCKII cells were extracted as previously described in detail (10). Briefly, cells were washed with ice-cold phosphate buffered saline, fixed by methanol, and collected with rubber scraper. Chloroform was then added to yield a theoretical ratio of chloroform:methanol:water at 1:2:0.8 (v/v/v) to form a mono-phase. Cell debris and proteins were removed by centrifugation at 2200 x g for 30 min. The supernatants were portioned by adding chloroform and 0.9% NaCl. The lower organic phases containing neutral glycosphingolipids lipids were washed with methanol and 0.9% NaCl, and subjected to base- and acid-hydrolysis (10). A portion of purified glycosphingolipids normalized to 100 nmol of total phospholipids was analyzed by high performance thin layer chromatography. The thin layer chromatography separations were processed twice. The plate pretreated with 1% sodium borate was first developed in a solvent system consisting of chloroform/methanol (98/2, v/v). After air drying, the plate was then developed in a solvent system containing chloroform/methanol/water (70/30/4, v/v/v). The levels of glucosylceramide were detected by charring with 8% cupric sulfate in 8% phosphoric acid, and quantified by densitometric scanning using ImageJ, NIH Image. Image data was analyzed, and the IC50 of each inhibitor was calculated using GraphPad Prism (version 5.03).

[1] = tested on: glucosylceramide (GlcCer) in brain and liver; test: Reduction of brain and liver glucosylceramide in CBE mice; type: in vivo; conditions: 14 days, D409V/null mice with CBE 25 mg/kg/day ip
Description: The in vivo assay measured the reduction in brain and liver glucosylceramide and glucosylsphingosine levels in mice on a D409V background concurrently treated with conduritol B epoxide (CBE), an irreversible inhibitor of GBA (beta-glucocerebrosidase).
Reduction of Brain and Liver Glucosylceramide and Glucosylsphingosine in CBE Mice
The reduction by inhibitors of GCS in brain glucosylceramide and glucosylsphingosine content was determined by the use of mice with Gba 1 mutant alleles, termed D409V/null. These are knock-in mice with a Gba 1 point mutation encoding Valine (V) 409 for the wild type (WT) Aspartate (D) on one missense allele and a null heteroallele [D409V/null (9V/null)]. The D409V/null and WT littermates were of mixed gender and mixed, but matched, genetic backgrounds of C57BL/129Sv/FVB. […] Mice were concurrently treated with GCS inhibitor or vehicle control for 14 days. The mice were sacrificed 2 hours following the last injection and tissues including brain, liver, spleen, kidney and lung were analyzed for glucosylceramide and glucosylsphingosine by mass spectrometry.
Mouse Tissue Lipid Analysis
Lipid extractions of liver, kidney, and brain were performed as previously described (7). Briefly, frozen liver (about 0.5 g), two kidneys (about 0.3 g) and whole brain (about 0.4 g) were individually homogenized in sucrose buffer (250 mM sucrose, pH 7.4, 10 mM HEPES and 1 mM EDTA), at 0.2 g tissue/1 mL of sucrose buffer, with a Tri-R homogenizer. Each 0.8 mL of homogenate was mixed with 2 mL of methanol and 1 mL of chloroform, bath sonicated for 1 min and incubated at room temperature for 1 h. Tissue debris were removed by centrifugation at 2.400 x gravity for 30 min. The pellets were reextracted by mixing with 1 mL of methanol, 0.5 mL of chloroform and 0.4 mL of 0.9% NaCl (chloroform/methanol/0.9% NaCl, 1:2:0.8), incubated at room temperature for 1 h and centrifuged at 2.400 x gravity for another 30 min. Two extracts were combined and mixed with 4.5 mL of chloroform and 1.2 mL of 0.9% NaCl (chloroform/methanol/0.9% NaCl, 2:1:0.8). After centrifugation at 800 x gravity for 5 min, lower layer was washed with 3 mL of methanol and 2.4 mL of 0.9% NaCl. Second washing was carried with 3 mL of methanol, 2 mL of water and 0.4 mL of 0.9% NaCl followed by a 5 min centrifugation at 800 x gravity. The resultant lower phase was collected and dried under a stream of N2 gas.
The analysis of neutral glycosphingolipids from mouse liver, kidney, and brain was processed after alkaline methanolysis. Kidney lipids were incubated with 2 mL of chloroform and 1 ml of 0.21 N NaOH in methanol for 2 h (kidney) or 7.5 h (liver and brain) at RT. […] GlcCer levels were quantified by comparison to known standards.

[2] = target: T2, glucosylceramide synthase (GCS) (Canis lupus familiaris, UniProt A0A8I3MXG6); test: GCS inhibition in MDCK cell homogenates (Lysate IC50); type: biochemical, canine; conditions: MDCK cell homogenate
T2 construct: endogenous in cells; host or cells: MDCK cell homogenate
T2 sequence (A0A8I3MXG6 1-394): T1 sequence (A0A8I3MXG6 1-394)
Description: GCS Inhibition in MDCK Cell Homogenates (Lysate IC50, Table 1)
IC50 values for new compounds of the invention were determined as reported in Shayman J. A., Abe A. 2000. Glucosylceramide synthase: assay and properties. Methods Enzymol.311: 42-49.

[3] = Pharmacokinetics in mice: plasma and brain drug AUC; type: in vivo; conditions: over 7 hrs following single IP injection at 10 mg/kg; for Kp / AUC: mouse; for Kp: brain/plasma; for AUC: plasma
[4] = 24 hours exposure, glucosylceramide level

Row | Structure (SMILES) | IC50 (GCS in MDCKII cells; [4]) | CBE mouse GlcCer reduction in brain ([1]; dose 100 µmol/kg) | CBE mouse GlcCer reduction in liver ([1]; dose 100 µmol/kg) | IC50 [2] | Kp [3] | AUC [3] | Brain drug AUC [3] | IC50 (GCS in MDCKII cells; cell marked 'rac': value of the racemate, 24 hours) | CBE mouse GlcCer reduction in brain ([1]; dose 72 µmol/kg) | CBE mouse GlcCer reduction in liver ([1]; dose 72 µmol/kg) | Plasma drug AUC [3]
1 | CC(C)(C)Oc1ccc([C@@H](O)[C@@H](CN2CCCC2)NC(=O)CC2Cc3ccccc3C2)nc1 [Example 17, N-((1S,2R)-1-(5-(tert-butoxy)pyridin-2-yl)-1-hydroxy-3-(pyrrolidin-1-yl)propan-2-yl)-2-(2,3-dihydro-1H-inden-2-yl)acetamide] | 4.6 nM | 23% | 34% | 11.3 nM | 0.34 | 902 ng·h/mL | 308 ng·h/g |  |  |  | 
2 | O=C(CC1Cc2ccccc2C1)N[C@H](CN1CCCC1)[C@H](O)c1ccc(OC(F)(F)F)cn1 [Example 21, 2-(2,3-dihydro-1H-inden-2-yl)-N-((1S,2R)-1-hydroxy-3-(pyrrolidin-1-yl)-1-(5-(trifluoromethoxy)pyridin-2-yl)propan-2-yl)acetamide] |  |  |  | 77 nM | 0.35 | 1120 ng·h/mL | 398 ng·h/g | 6.5 nM |  |  | 
3 | CC(C)(C)Oc1ccc([C@@H](O)[C@@H](CN2CCCC2)NC(=O)CC2Cc3ccc(F)cc3C2)nc1 (stereo partly drawn) [Example 24, N-((1S,2R)-1-(5-(tert-butoxy)pyridin-2-yl)-1-hydroxy-3-(pyrrolidin-1-yl)propan-2-yl)-2-(5-fluoro-2,3-dihydro-1H-inden-2-yl)acetamide] | 23.8 nM |  |  | 568 nM |  |  |  |  |  |  | 
4 | O=C(CC1Cc2ccccc2C1)N[C@H](CN1CCCC1)[C@H](O)c1cc(Cl)ccn1 [Example 25, N-((1S,2R)-1-(4-chloropyridin-2-yl)-1-hydroxy-3-(pyrrolidin-1-yl)propan-2-yl)-2-(2,3-dihydro-1H-inden-2-yl)acetamide] |  |  |  | 36.4 nM | 0.17 | 1040 ng·h/mL | 173 ng·h/g |  | 30% | 36% | 
5 | CC(C)(C)Oc1ccc([C@@H](O)[C@@H](CN2CCCC2)NC(=O)CC2Cc3ccccc3C2)cc1 [reference compound] |  |  |  |  | 0.58 | 1070 ng·h/mL | 619 ng·h/g |  |  |  | 
6 | O=C(CC1Cc2ccccc2C1)N[C@H](CN1CCCC1)[C@H](O)c1ccc(OC(F)(F)F)cc1 [reference compound] |  |  |  |  | 0.8 |  | 1046 ng·h/g |  |  |  | 1308 ng·h/mL
7 | O=C(CC1Cc2ccccc2C1)N[C@H](CN1CCCC1)[C@H](O)c1cccc(Cl)c1 [reference compound] |  |  |  |  | 0.72 |  | 1109 ng·h/g |  |  |  | 
